The subject of experiment [1] is SUM149PT. Nature of the experiment: Antiproliferative activity against human SUM149PT cells assessed as inhibition of cell growth at 20 uM incubated for 48 hrs by MTT assay relative to control. In kind it is functional.
The test system of experiment [2] is HCC1937. Nature of the experiment: Antiproliferative activity against human HCC1937 cells assessed as inhibition of cell growth at 20 uM incubated for 48 hrs by MTT assay relative to control. Type of experiment: functional. In general terms: Tetrazolium assays rely on reduction of a dye to a coloured formazan, in cell work by metabolically active cells.
A further experiment has as its system MDA-MB-436. Briefly: Antiproliferative activity against human MDA-MB-436 cells assessed as inhibition of cell growth at 20 uM incubated for 48 hrs by MTT assay relative to control. Type of experiment: functional.
Experiment [3] concerns SUM149PT. Briefly: Antiproliferative activity against human SUM149PT cells assessed as inhibition of cell growth incubated for 48 hrs by MTT assay. In kind it is functional, cell-based.
The subject of experiment [4] is HCC1937. Nature of the experiment: Antiproliferative activity against human HCC1937 cells assessed as inhibition of cell growth incubated for 48 hrs by MTT assay. To be noted: HCC1937, 48 h. In kind it is functional, cell-based.
Experiment [5] concerns CAPAN-1. Briefly: Antiproliferative activity against human CAPAN-1 cells assessed as inhibition of cell growth incubated for 48 hrs by MTT assay. Type of experiment: functional, cell-based. To be noted: CAPAN-1, 48 h.
The test system of experiment [6] is HCC1937. Nature of the experiment: Antiproliferative activity against human HCC1937 cells assessed as inhibition of cell growth at 5 uM incubated for 48 hrs by MTT assay relative to control. Type of experiment: functional.
For experiment [7], the system named is CAPAN-1. Briefly: Antiproliferative activity against human CAPAN-1 cells assessed as inhibition of cell growth at 20 uM incubated for 48 hrs by MTT assay relative to control. In kind it is functional.
The test system of experiment [8] is CAPAN-1. Briefly: Antiproliferative activity against human CAPAN-1 cells assessed as inhibition of cell growth at 5 uM incubated for 48 hrs by MTT assay relative to control. Type of experiment: functional.
Experiment [9] deals with SUM149PT. Briefly: Induction of cell cycle arrest in human SUM149PT cells assessed as accumulation of cells at G0/G1 phase at 2 uM incubated for 24 hrs by propidium iodide/RNase A staining based flow cytometry (reference value: 72.8 %). Type of experiment: functional. Background: In flow cytometry, cells or beads pass a laser one at a time.
In experiment [10] the test system is SUM149PT. Nature of the experiment: Induction of cell cycle arrest in human SUM149PT cells assessed as accumulation of cells at S phase at 2 uM incubated for 24 hrs by propidium iodide/RNase A staining based flow cytometry (reference value: 16.4 %). Type of experiment: functional.
Experiment [11] has as its system SUM149PT. Nature of the experiment: Induction of cell cycle arrest in human SUM149PT cells assessed as accumulation of cells at G2/M phase at 2 uM incubated for 24 hrs by propidium iodide/RNase A staining based flow cytometry (reference value: 5.54 %). Type of experiment: functional.
Experiment [12] has as its system SUM149PT. Nature of the experiment: Induction of cell cycle arrest in human SUM149PT cells assessed as accumulation of cells at G0/G1 phase at 2 uM incubated for 48 hrs by propidium iodide/RNase A staining based flow cytometry (reference value: 69.2 %). In kind it is functional.
For experiment [13], the system named is SUM149PT. Briefly: Induction of cell cycle arrest in human SUM149PT cells assessed as accumulation of cells at S phase at 2 uM incubated for 48 hrs by propidium iodide/RNase A staining based flow cytometry (reference value: 18.7 %). In kind it is functional.
For experiment [14], the system named is SUM149PT. Nature of the experiment: Induction of apoptosis in human SUM149PT cells assessed as viable cells at 2 uM incubated for 24 hrs by Annexin V-FITC/PI staining based flow cytometry (reference value: 93.7 %). In kind it is functional. To be noted: read-out: Activity.
For experiment [15], the system named is SUM149PT. Nature of the experiment: Induction of apoptosis in human SUM149PT cells assessed as early apoptotic cells at 2 uM incubated for 24 hrs by Annexin V-FITC/PI staining based flow cytometry (reference value: 2.59 %). Type of experiment: functional.
For experiment [16], the system named is SUM149PT. Nature of the experiment: Induction of apoptosis in human SUM149PT cells assessed as late apoptotic cells at 2 uM incubated for 24 hrs by Annexin V-FITC/PI staining based flow cytometry (reference value: 2.45 %). Type of experiment: functional.
The subject of experiment [17] is SUM149PT. Nature of the experiment: Induction of apoptosis in human SUM149PT cells assessed as necrotic cells at 2 uM incubated for 24 hrs by Annexin V-FITC/PI staining based flow cytometry (reference value: 1.27 %). Type of experiment: functional.
Experiment [18] relates to SUM149PT. Briefly: Induction of apoptosis in human SUM149PT cells assessed as viable cells at 2 uM incubated for 48 hrs by Annexin V-FITC/PI staining based flow cytometry (reference value: 96.1 %). To be noted: read-out: Activity. In kind it is functional.
The subject of experiment [19] is SUM149PT. Briefly: Induction of apoptosis in human SUM149PT cells assessed as early apoptotic cells at 2 uM incubated for 48 hrs by Annexin V-FITC/PI staining based flow cytometry (reference value: 2.28 %). Type of experiment: functional.
In experiment [20] the test system is SUM149PT. Nature of the experiment: Induction of apoptosis in human SUM149PT cells assessed as late apoptotic cells at 2 uM incubated for 48 hrs by Annexin V-FITC/PI staining based flow cytometry (reference value: 1.13 %). In kind it is functional.
The subject of experiment [21] is SUM149PT. Briefly: Induction of apoptosis in human SUM149PT cells assessed as necrotic cells at 2 uM incubated for 48 hrs by Annexin V-FITC/PI staining based flow cytometry (reference value: 0.51 %). In kind it is functional.

SMILES strings stand for the structures. Where only a bound is given, the exact number is not on record here.

As usually defined, the inhibition is the percentage by which the read-out fell short of the control. As usually defined, the IC50 is the concentration that inhibits the measured activity by half.

With `NC(=O)c1cccc2cc(-c3ccc4c(c3)OCO4)c(=O)oc12`, the figures for the inhibition at 20 µM in the experiment on SUM149PT [1], in the experiment with HCC1937 [2] and in the experiment on MDA-MB-436 were greater than 60%, greater than 60% and less than 40%, respectively.

Regarding `COc1cccc(-c2cc3cccc(C(N)=O)c3oc2=O)c1`, the IC50 in the experiment on SUM149PT [3] came to 4.93 µM; in the experiment with HCC1937 [4], 0.62 µM; in the experiment with CAPAN-1 [5], 4.6 µM. Besides, the inhibition at 20 µM in the experiment on SUM149PT [1] is greater than 60%; in the experiment on HCC1937 [2] it was greater than 80%; in the experiment with CAPAN-1 [7] it was greater than 60%; in the experiment on MDA-MB-436, less than 40%. The inhibition at 5 µM is greater than 70% in the experiment on HCC1937 [6] and greater than 50% in the experiment on CAPAN-1 [8].

As to `COc1ccc(-c2cc3cccc(C(N)=O)c3oc2=O)cc1`, the inhibition at 20 µM in the experiment on SUM149PT [1] was greater than 60%; in the experiment on HCC1937 [2] it was greater than 60%; in the experiment with MDA-MB-436 it was less than 40%.

For `COc1cc(OC)cc(-c2cc3cccc(C(N)=O)c3oc2=O)c1`, the inhibition at 20 µM in the experiment with SUM149PT [1] was greater than 60%; in the experiment on HCC1937 [2] it was greater than 60%; with MDA-MB-436, less than 40%.

In the case of `NC(=O)c1cc(F)cc2cc(-c3ccccc3O)c(=O)oc12`, the IC50 with SUM149PT [3] is 3.29 µM; in the experiment on HCC1937 [4] it was 2.94 µM; in the experiment on CAPAN-1 [5], 11.9 µM. Also, the inhibition at 20 µM was greater than 60% with SUM149PT [1], greater than 80% in the experiment with HCC1937 [2] and less than 40% in the experiment with MDA-MB-436. In addition, the inhibition at 5 µM with HCC1937 [6] was greater than 70%.

On to `NC(=O)c1cc(F)cc2cc(-c3ccc4c(c3)CCO4)c(=O)oc12`, for which the results for the IC50 in the experiment with SUM149PT [3], in the experiment with HCC1937 [4] and with CAPAN-1 [5] were 5.11 µM, 3.71 µM and 21.1 µM, respectively. For the same compound, the inhibition at 20 µM was greater than 60% in the experiment with SUM149PT [1], greater than 60% in the experiment on HCC1937 [2] and less than 40% with MDA-MB-436.

Take `COc1ccc(-c2cc3cccc(C(N)=O)c3oc2=O)cc1OC`: the inhibition at 20 µM in the experiment with SUM149PT [1] is greater than 60%; in the experiment with HCC1937 [2], greater than 60%; in the experiment on MDA-MB-436, less than 40%.

As for `COc1ccc(-c2cc3cccc(C(N)=O)c3oc2=O)cc1O`, the values for the IC50 with SUM149PT [3], in the experiment on HCC1937 [4] and with CAPAN-1 [5] were 4.82 µM, 10.6 µM and 15.3 µM, respectively. Further, the inhibition at 20 µM in the experiment with SUM149PT [1] is greater than 60%; in the experiment with HCC1937 [2], greater than 60%; with MDA-MB-436 it was less than 40%.

As for `NC(=O)c1cccc2cn(-c3ccc([C@@H]4CCCNC4)cc3)nc12` [NIRAPARIB], the IC50 stood at 7.05 µM with SUM149PT [3] and 10.4 µM in the experiment on CAPAN-1 [5]. The Activity amounted to 54.2% in the experiment on SUM149PT [9]; 28.4% in the experiment on SUM149PT [10]; 16.2% in the experiment on SUM149PT [11]; 32% with SUM149PT [12]; 51.9% in the experiment with SUM149PT [13]; 1.85% in the experiment on SUM149PT [15]. Moreover, the Activity was 6.34% with SUM149PT [16]; 1.93% in the experiment with SUM149PT [17]; 11.8% in the experiment on SUM149PT [19]; 7.18% with SUM149PT [20]; 3.34% in the experiment on SUM149PT [21]. In addition, the viability at 2 µM in the experiment on SUM149PT [14] was determined as 89.9%; with SUM149PT [18] it was 77.7%.

`COc1cc(-c2cc3cccc(C(N)=O)c3oc2=O)ccc1O`: the figures for the inhibition at 20 µM with SUM149PT [1], in the experiment on HCC1937 [2] and in the experiment with MDA-MB-436 were greater than 60%, greater than 60% and less than 40%, respectively.

With `NC(=O)c1cccc2cc(-c3ccc(O)cc3)c(=O)oc12`, the IC50 in the experiment with SUM149PT [3] worked out at 3.14 µM; in the experiment with HCC1937 [4], 10.8 µM; in the experiment on CAPAN-1 [5], 19.1 µM. Further, the figures for the inhibition at 20 µM in the experiment on SUM149PT [1], with HCC1937 [2] and in the experiment with MDA-MB-436 were greater than 60%, greater than 60% and less than 40%, respectively.

For the compound `NC(=O)c1cc(F)cc2cc(-c3ccsc3)c(=O)oc12`, the values for the IC50 in the experiment with SUM149PT [3], in the experiment on HCC1937 [4] and with CAPAN-1 [5] were 11.6 µM, 1.9 µM and 20.6 µM, respectively. The inhibition at 20 µM in the experiment on SUM149PT [1] is greater than 60%; in the experiment with HCC1937 [2], greater than 60%; in the experiment on MDA-MB-436, less than 40%.

For `NC(=O)c1cccc2cc(-c3ccc4c(c3)CCO4)c(=O)oc12`, the figures for the inhibition at 20 µM with SUM149PT [1], in the experiment with HCC1937 [2] and in the experiment on MDA-MB-436 were greater than 60%, greater than 60% and less than 40%, respectively.

Consider `NC(=O)c1cccc2cc(-c3cccs3)c(=O)oc12`, for which the inhibition at 20 µM with SUM149PT [1] is greater than 60%; in the experiment with HCC1937 [2] it was greater than 60%; in the experiment with MDA-MB-436 it was less than 40%.
